Among the data in patent US20140018347A1, “BENZOXAZEPINES AS INHIBITORS OF mTOR AND METHODS OF THEIR USE AND MANUFACTURE” (Exelixis, Inc., priority 2010, published 2014) are IC50 values, retold here.

Molecules are shown by their SMILES. Bounds are passed on as bounds.

The target in one test is mTORC1 (Homo sapiens, UniProt P42345). Kind of test: mTOR/GbL/Raptor (mTORC1) ELISA Assay. The test is classed as biochemical. The conditions noted are these: phosphorylation of 4E-BP1; 0.2 nM mTORC1, 10 μM ATP. As for the experimental part:
The measurement of mTORC1 enzyme activity was performed in an ELISA assay format following the phosphorylation of 4E-BP1 protein. All experiments were performed in the 384-well format. Generally, 0.5 μL DMSO containing varying concentrations of the test compound was mixed with 15 μL enzyme solution. Kinase reactions were initiated with the addition of 15 μL of substrates-containing solution. The assay conditions were as follows; 0.2 nM mTORC1, 10 μM ATP and 50 nM NHis-tagged 4E-BP1 in 20 mM Hepes, pH 7.2, 1 mM DTT, 50 mM NaCl, 10 mM MnCl2, 0.02 mg/mL BSA, 0.01% CHAPS, 50 mM β-glycerophosphate. Following an incubation of 120 minutes at ambient temperature, 20 μL of the reaction volume was transferred to a Ni-Chelate-coated 384-well plate. The binding step of the 4E-BP1 protein proceeded for 60 minutes, followed by washing 4 times each with 50 μL of Tris-buffered saline solution (TBS). Anti-phospho-4E-BP1 rabbit-IgG (20 μL, 1:5000) in 5% BSA-TBST (0.2% Tween-20 in TBS) was added and further incubated for 60 minutes. Incubation with a secondary HRP-tagged anti-IgG was similarly performed after washing off the primary antibody (4 washes of 50 μL). Following the final wash step with TBST, 20 μL of SuperSignal ELISA Femto (Pierce Biotechnology) was added and the luminescence measured using an EnVision plate reader.

The target in another test is PI3Kalpha (Homo sapiens, UniProt P42336). Kind of test: PI3K Biochemical Assays (PI3K-alpha assay). Particulars: ATP consumption, luciferase-luciferin; 1 μM ATP, 10 μM PIP2. As for the experimental part: PI3Kn activity was measured as the percent of ATP consumed following the kinase reaction using luciferase-luciferin-coupled chemiluminescence. Reactions were conducted in 384-well white, medium binding microtiter plates (Greiner). Kinase reactions were initiated by combining test compounds, ATP, substrate (PIP2), and kinase in a 20 μL volume in a buffer solution. The standard PI3Kalpha assay buffer was composed 50 mM Tris, pH 7.5, 1 mM EGTA, 10 mM MgCl2, 1 mM DTT and 0.03% CHAPS. The standard assay concentrations for enzyme, ATP, and substrate were 3 nM, 1 μM, and 10 μM, respectively. The reaction mixture was incubated at ambient temperature for approximately 2 h. Following the kinase reaction, a 10 μL aliquot of luciferase-luciferin mix (Promega Kinase-Glo) was added and the chemiluminescence signal measured using a Victor2 or EnVision (Perkin Elmer). Total ATP consumption was limited to 40-60% and IC50 values of control compounds correlate well with literature references. Substituting PI3Kα with PI3Krβ, PI3Kγ, or PI3Kδ, the inhibitory activity of the compounds for the other isoforms of PI3K were measured. For the PI3Kβ and PI3Kδ assays, enzyme concentrations were 10 nM and 4 nM, respectively. For the PI3Kγ assay, enzyme concentration was 40 nM, the incubation time was 1 h, and the concentration of MgCl2 in the assay buffer was 5 mM.
PI3Kalpha, sequence (P42336 whole entry): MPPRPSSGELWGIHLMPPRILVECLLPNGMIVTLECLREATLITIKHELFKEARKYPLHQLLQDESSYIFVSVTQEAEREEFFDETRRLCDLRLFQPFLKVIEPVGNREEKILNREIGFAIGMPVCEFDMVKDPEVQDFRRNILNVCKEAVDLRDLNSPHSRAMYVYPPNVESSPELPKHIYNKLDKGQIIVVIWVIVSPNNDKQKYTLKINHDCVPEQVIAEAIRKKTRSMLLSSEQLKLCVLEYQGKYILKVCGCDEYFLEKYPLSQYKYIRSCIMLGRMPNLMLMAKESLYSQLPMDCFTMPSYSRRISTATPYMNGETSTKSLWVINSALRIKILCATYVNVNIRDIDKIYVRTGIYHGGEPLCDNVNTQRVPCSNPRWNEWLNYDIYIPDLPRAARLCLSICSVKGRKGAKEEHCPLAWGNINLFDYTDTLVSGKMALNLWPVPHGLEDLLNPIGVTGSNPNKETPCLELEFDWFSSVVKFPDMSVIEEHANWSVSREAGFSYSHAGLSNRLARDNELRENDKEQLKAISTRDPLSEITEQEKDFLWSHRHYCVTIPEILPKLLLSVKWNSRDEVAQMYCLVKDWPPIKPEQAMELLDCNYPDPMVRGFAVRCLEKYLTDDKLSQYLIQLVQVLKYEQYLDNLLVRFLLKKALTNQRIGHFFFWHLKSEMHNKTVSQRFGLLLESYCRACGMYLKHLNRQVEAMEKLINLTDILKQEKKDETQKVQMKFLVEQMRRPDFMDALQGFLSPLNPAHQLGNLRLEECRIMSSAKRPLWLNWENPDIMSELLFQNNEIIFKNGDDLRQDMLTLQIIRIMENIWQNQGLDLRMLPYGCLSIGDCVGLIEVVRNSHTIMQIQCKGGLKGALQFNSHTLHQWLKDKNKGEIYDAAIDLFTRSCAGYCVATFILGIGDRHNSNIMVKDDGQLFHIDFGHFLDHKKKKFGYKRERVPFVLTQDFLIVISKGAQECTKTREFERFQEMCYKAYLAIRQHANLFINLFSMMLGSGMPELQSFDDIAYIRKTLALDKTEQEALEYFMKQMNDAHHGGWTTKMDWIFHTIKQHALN
PI3Kalpha, sequence (P27986 whole entry partner): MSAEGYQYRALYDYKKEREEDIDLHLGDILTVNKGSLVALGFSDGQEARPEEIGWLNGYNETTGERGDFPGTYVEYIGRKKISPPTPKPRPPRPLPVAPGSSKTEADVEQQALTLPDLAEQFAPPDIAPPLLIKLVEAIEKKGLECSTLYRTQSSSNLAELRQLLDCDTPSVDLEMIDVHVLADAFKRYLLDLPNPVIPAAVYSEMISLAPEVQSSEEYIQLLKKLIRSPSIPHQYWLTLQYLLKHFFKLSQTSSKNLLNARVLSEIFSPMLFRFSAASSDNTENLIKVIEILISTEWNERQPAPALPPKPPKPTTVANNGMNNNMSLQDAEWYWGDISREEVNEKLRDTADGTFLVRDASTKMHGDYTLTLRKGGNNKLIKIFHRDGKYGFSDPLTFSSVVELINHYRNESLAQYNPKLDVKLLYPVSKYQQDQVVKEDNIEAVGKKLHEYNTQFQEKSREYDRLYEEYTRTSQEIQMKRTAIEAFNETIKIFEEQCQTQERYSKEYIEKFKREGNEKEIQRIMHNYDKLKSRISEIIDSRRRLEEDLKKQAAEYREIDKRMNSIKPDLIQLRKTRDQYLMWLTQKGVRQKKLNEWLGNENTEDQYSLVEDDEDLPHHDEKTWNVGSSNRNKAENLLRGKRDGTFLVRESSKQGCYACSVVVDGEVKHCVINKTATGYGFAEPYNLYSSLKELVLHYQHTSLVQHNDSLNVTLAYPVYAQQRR

With `Cc1nc(CNCCF)nc(N2CCOc3ccc(-c4cnc5sc(N)nc5c4)cc3C2)c1C(C)C` [Compound 82, 6-{4-[2-{[(2-fluoroethyl)amino]methyl}-6-methyl-5-(1-methylethyl)pyrimidin-4-yl]-2,3,4,5-tetrahydro-1,4-benzoxazepin-7-yl}[1,3]thiazolo[5,4-b]pyridin-2-amine], the IC50 against mTORC1 and against PI3Kalpha was at most 100 nM each time.
Consider `Cc1nc(CN(C)C)nc(N2CCOc3ccc(-c4cnc5sc(N)nc5c4)cc3C2)c1Cl` [Compound 65, 6-(4-{5-chloro-2-[(dimethylamino)methyl]-6 methylpyrimidin-4-yl}-2,3,4,5-tetrahydro-1,4-benzoxazepin-7-yl)[1,3]thiazolo[5,4-b]pyridin-2-amine], for which the IC50 was 100 to 500 nM against mTORC1 and at most 100 nM against PI3Kalpha.
`Cc1nc(C(N)=O)nc(N2CCOc3ccc(-c4cnc5sc(N)nc5c4)cc3C2)c1C(C)C` [Compound 20, 4-[7-(2-amino[1,3]thiazolo[5,4-b]pyridin-6-yl)-2,3-dihydro-1,4-benzoxazepin-4(5H)-yl]-6-methyl-5-(1-methylethyl)pyrimidine-2-carboxamide]: the IC50 on mTORC1 and against PI3Kalpha was at most 100 nM in each case.
Take `Cc1nc(CN(C)C)nc(N2CCOc3ccc(-c4cnc5sc(N)nc5c4)cc3C2)c1Cc1ccc(F)cc1` [Compound 62, 6-(4-{2-[(dimethylamino)methyl]-5-[(4-fluorophenyl)methyl]-6-methylpyrimidin-4-yl}-2,3,4,5-tetrahydro-1,4-benzoxazepin-7-yl)[1,3]thiazolo[5,4-b]pyridin-2-amine]: the half-maximal inhibitory concentration (IC50) against mTORC1 and at PI3Kalpha was at most 100 nM each time.
Regarding `Cc1nc(CN(C)C)nc(N2CCOc3ccc(-c4cnc5sc(N)nc5c4)cc3C2)c1-c1ccccc1` [Compound 37, 6-(4-{2-[(dimethylamino)methyl]-6-methyl-5-phenylpyrimidin-4-yl}-2,3,4,5-tetrahydro-1,4-benzoxazepin-7-yl)[1,3]thiazolo[5,4-b]pyridin-2-amine], the IC50 on mTORC1 and against PI3Kalpha was at most 100 nM throughout.
On to `CC1(C)CC(=O)c2sc(N3CCOc4ccc(-c5cnc6sc(N)nc6c5)cc4C3)nc2C1` [Compound 84, 2-[7-(2-amino[1,3]thiazolo[5,4-b]pyridin-6-yl)-2,3-dihydro-1,4-benzoxazepin-4(5H)-yl]-5,5-dimethyl-5,6-dihydro-1,3-benzothiazol-7(4H)-one], for which the IC50 lay within 100 to 500 nM at mTORC1 and 500 to 2500 nM against PI3Kalpha.
For the molecule `COc1ccc2c(N3CCOc4ccc(-c5cnc6sc(N)nc6c5)cc4C3)nc(C)nc2c1` [Compound 26, 6-{4-[2-methyl-7-(methyloxy)quinazolin-4-yl]-2,3,4,5-tetrahydro-1,4-benzoxazepin-7-yl}[1,3]thiazolo[5,4-b]pyridin-2-amine], the IC50 on mTORC1 is 100 to 500 nM; against PI3Kalpha, at most 100 nM.
Take `Cc1nc(CNS(C)(=O)=O)nc(N2CCOc3ccc(-c4cnc5sc(N)nc5c4)cc3C2)c1C(C)C` [Compound 21, N-({4-[7-(2-amino[1,3]thiazolo[5,4-b]pyridin-6-yl)-2,3-dihydro-1,4-benzoxazepin-4(5H)-yl]-6-methyl-5-(1-methylethyl)pyrimidin-2-yl}methyl)methanesulfonamide]: the IC50 at mTORC1 and against PI3Kalpha was at most 100 nM each time.
For the molecule `Cc1nc(CN(C)C)nc(N2CCOc3ccc(-c4cnc5sc(N)nc5c4)cc3C2)c1F` [Compound 66, 6-(4-{2-[(dimethylamino)methyl]-5-fluoro-6-methylpyrimidin-4-yl)-1,3,4,5-tetrahydro-1,4-benzoxazepin-7-yl)[1,3]thiazolo[5,4-b]pyridin-2-amine], the figures for the IC50 against mTORC1 and at PI3Kalpha were 500 to 2500 nM and 100 to 500 nM, respectively.
Take `Cc1nc(N)nc(N2CCOc3ccc(-c4cnc5sc(N)nc5c4)cc3C2)c1-c1cccc(F)c1` [Compound 40, 6-{4-[2-amino-5-(3-fluorophenyl)-6-methylpyrimidin-4-yl]-2,3,4,5-tetrahydro-1,4-benzoxazepin-7-yl}[1,3]thiazolo[5,4-b]pyridin-2-amine]: the IC50 on mTORC1 and against PI3Kalpha was at most 100 nM each time.
On to `N#Cc1cnc(N)cc1N1CCOc2ccc(-c3cnc4sc(N)nc4c3)cc2C1` [Compound 58, 6-amino-4-[7-(2-amino[1,3]thiazolo[5,4-b]pyridin-6-yl)-2,3-dihydro-1,4-benzoxazepin-4(5H)-yl]pyridine-3-carbonitrile], for which the IC50 against mTORC1 and at PI3Kalpha was at most 100 nM throughout.
Consider `Cc1nc(S(C)(=O)=O)nc(N2CCOc3ccc(-c4cnc5sc(N)nc5c4)cc3C2)c1C(C)C` [Compound 24, 6-{4-[6-methyl-5-(1-methylethyl)-2-(methylsulfonyl)pyrimidin-4-yl]-2,3,4,5-tetrahydro-1,4-benzoxazepin-7-yl}[1,3]thiazolo[5,4-b]pyridin-2-amine], for which the IC50 at mTORC1 and against PI3Kalpha was at most 100 nM throughout.
As to `Cc1nc(CN(C)C)nc(N2CCOc3ccc(-c4cnc5sc(N)nc5c4)cc3C2)c1Br` [Compound 64, 6-(4-{5-bromo-2-[(dimethylamino)methyl]-6-methylpyrimidin-4-yl}-2,3,4,5-tetrahydro-1,4-benzoxazepin-7-yl)[1,3]thiazolo[5,4-b]pyridin-2-amine], the IC50 on mTORC1 is 500 to 2500 nM; on PI3Kalpha it was at most 100 nM.
Regarding `CC1=Cc2nc(N)nc(N3CCOc4ccc(-c5cnc6sc(N)nc6c5)cc4C3)c2CC1(C)C` [Compound 98, 4-[7-(2-amino[1,3]thiazolo[5,4-b]pyridin-6-yl)-2,3-dihydro-1,4-benzoxazepin-4(5H)-yl]-6,6,7-trimethyl-5,6-dihydroquinazolin-2-amine], the IC50 against mTORC1 and at PI3Kalpha was at most 100 nM each time.
`Cc1nc(CN2CCCC2)nc(N2CCOc3ccc(-c4cnc5sc(N)nc5c4)cc3C2)c1C(C)C` [Compound 28, 6-{4-[6-methyl-5-(1-methylethyl)-2-(pyrrolidin-1-ylmethyl)pyrimidin-4-yl]-2,3,4,5-tetrahydro-1,4-benzoxazepin-7-yl}[1,3]thiazolo[5,4-b]pyridin-2-amine]: the IC50 on mTORC1 and against PI3Kalpha was at most 100 nM throughout.
Regarding `Cc1nc(CN(C)C)nc(N2CCOc3ccc(-c4cnc5sc(N)nc5c4)cc3C2)c1CC(=O)O` [Compound 18, {4-[7-(2-amino[1,3]thiazolo[5,4-b]pyridin-6-yl)-2,3-dihydro-1,4-benzoxazepin-4(5H)-yl]-2-[(dimethylamino)methyl]-6-methylpyrimidin-5-yl}acetic acid], the IC50 against mTORC1 lay within 500 to 2500 nM; against PI3Kalpha, 100 to 500 nM.
For `Nc1nc(Cl)c(CO)c(N2CCOc3ccc(-c4cnc5sc(N)nc5c4)cc3C2)n1` [Compound 43, {2-amino-4-[7-(2-amino[1,3]thiazolo[5,4-b]pyridin-6-yl)-2,3-dihydro-1,4-benzoxazepin-4(5H)-yl]-6-chloropyrimidin-5-yl}methanol] the same measures were 100 to 500 nM and at most 100 nM.
With `CCCc1c(C)nc(CN(C)C)nc1N1CCOc2ccc(-c3cnc4sc(N)nc4c3)cc2C1` [Compound 69, 6-(4-{2-[(dimethylamino)methyl]-6-methyl-5-propylpyrimidin-4-yl}-1,3,4,5-tetrahydro-1,4-benzoxazepin-7-yl)[1,3]thiazolo[5,4-b]pyridin-2-amine], the IC50 at mTORC1 and on PI3Kalpha was at most 100 nM in each case.
Consider `C=C(C)c1c(C)nc(N)nc1N1CCOc2ccc(-c3cnc4sc(N)nc4c3)cc2C1` [Compound 30, 6-{4-[2-amino-6-methyl-5-(1-methylethenyl)pyrimidin-4-yl]-2,3,4,5-tetrahydro-1,4-benzoxazepin-7-yl}[1,3]thiazolo[5,4-b]pyridin-2-amine], for which the IC50 on mTORC1 and against PI3Kalpha was at most 100 nM each time.
With `CCc1c(C)nc(CN(C)C)nc1N1CCOc2ccc(-c3cnc4sc(N)nc4c3)cc2C1` [Compound 1, 6-(4-{2-[(dimethylamino)methyl]-5-ethyl-6-methylpyrimidin-4-yl)-2,3,4,5-tetrahydro-1,4-benzoxazepin-7-yl)[1,3]thiazolo[5,4-b]pyridin-2-amine], the half-maximal inhibitory concentration (IC50) against mTORC1 was 100 to 500 nM; at PI3Kalpha it was at most 100 nM.
